Results: patent US9758524B2, “4-imidazopyridazin-1-yl-benzamides as Btk inhibitors” (Merck Sharp & Dohme B.V., priority 2011, dated 2017)
Read-outs that look alike come from different tables or passages of the source.

Key:
[1] = biological target: FynT enzyme (Homo sapiens (Human), UniProt P06241); assay: FynT enzyme activity (IMAP fluorescence polarization assay); format: biochemical; details: 60 min pre-incubation, 0.2 μM ATP
Experimental: FynT enzyme activity is measured using the IMAP (immobilized metal ion affinity-based fluorescence polarization) assay as outlined below.
Test compounds and FynT enzyme are pre-incubated 60 minutes at room temperature, before adding 5 μL/well of 400 nM Fluorescin labeled substrate peptide (p34cdc2 substrate peptide, e.g. #R7157/#R7172, Molecular Devices) in KR-buffer. Final peptide substrate concentration in assay is 100 nM. […] Following incubation for 2 h at room temperature the enzyme reaction is stopped by adding 40 μL/well IMAP Progressive Binding Solution (according to suppliers (Molecular Devices) protocol using 75% 1× buffer A and 25% 1× buffer B with 1:600 Progressive Binding Solution). After 60 min incubation at room temperature in the dark the FP signal is read. […] Values are calculated as percentage of the difference in readout (ΔmPi) of the controls with and without ATP. EC50 values are determined by curve fitting of the experimental results using Activity Base.

[2] = biological target: Btk enzyme (His-Btk) (Homo sapiens (Human), UniProt Q06187); assay: Btk enzyme activity (IMAP fluorescence polarization assay)
Experimental: Inhibition of kinase activity can be measured using the Immobilized Metal Assay for Phosphochemicals (IMAP) assay. IMAP is a homogeneous fluorescence polarization (FP) assay based on affinity capture of phosphorylated peptide substrates. IMAP uses fluorescein-labeled peptide substrates that, upon phosphorylation by a protein kinase, bind to so-called IMAP nanoparticles, which are derivatized with trivalent metal complexes.
Final peptide substrate concentration in assay is 50 nM.

[3] = biological target: Lck enzyme (Homo sapiens (Human), UniProt P06239); assay: Lck enzyme activity (IMAP fluorescence polarization assay)
[4] = biological target: Src enzyme (Homo sapiens (Human), UniProt P12931); assay: Src enzyme activity (IMAP fluorescence polarization assay); details: read-out: EC50 Src activity values; IMAP, 60 min pre-incubation, 4 μM ATP
[5] = biological target: Lyn enzyme (Homo sapiens (Human), UniProt P07948); assay: Lyn enzyme activity (IMAP fluorescence polarization assay); details: read-out: EC50 Lyn activity values, 60 min pre-incubation, 2 μM ATP, bin bound in μM
[6] = read-out: EC50 Btk activity values, IMAP, 60 min pre-incubation, 5 μM ATP, bin bound in nM
[7] = read-out: EC50 Lck activity values, IMAP, 60 min pre-incubation, 6 μM ATP, bin bound in μM
[8] = IMAP, 60 min pre-incubation, 5 μM ATP, bin bound in μM
[9] = IMAP, 60 min pre-incubation, 5 μM ATP, bin bound in nM

Btk enzyme (His-Btk), sequence (Q06187 whole entry): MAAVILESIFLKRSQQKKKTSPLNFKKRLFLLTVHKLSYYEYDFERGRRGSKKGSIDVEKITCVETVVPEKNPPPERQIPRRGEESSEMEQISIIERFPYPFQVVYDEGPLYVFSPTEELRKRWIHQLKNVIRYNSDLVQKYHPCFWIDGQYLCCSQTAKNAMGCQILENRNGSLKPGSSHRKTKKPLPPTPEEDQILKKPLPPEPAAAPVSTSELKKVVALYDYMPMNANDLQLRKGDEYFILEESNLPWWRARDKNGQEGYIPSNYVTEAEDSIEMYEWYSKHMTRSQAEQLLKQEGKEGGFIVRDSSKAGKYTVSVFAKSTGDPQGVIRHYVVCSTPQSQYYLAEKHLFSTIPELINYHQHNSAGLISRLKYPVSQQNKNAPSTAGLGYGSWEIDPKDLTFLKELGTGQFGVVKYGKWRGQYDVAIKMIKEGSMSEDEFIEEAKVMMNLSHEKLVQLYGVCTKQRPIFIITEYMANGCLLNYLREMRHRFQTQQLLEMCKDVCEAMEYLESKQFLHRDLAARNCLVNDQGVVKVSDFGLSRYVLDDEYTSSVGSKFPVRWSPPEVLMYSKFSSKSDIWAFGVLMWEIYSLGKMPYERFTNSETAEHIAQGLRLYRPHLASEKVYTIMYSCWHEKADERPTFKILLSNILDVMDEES
Lyn enzyme, sequence (P07948 whole entry): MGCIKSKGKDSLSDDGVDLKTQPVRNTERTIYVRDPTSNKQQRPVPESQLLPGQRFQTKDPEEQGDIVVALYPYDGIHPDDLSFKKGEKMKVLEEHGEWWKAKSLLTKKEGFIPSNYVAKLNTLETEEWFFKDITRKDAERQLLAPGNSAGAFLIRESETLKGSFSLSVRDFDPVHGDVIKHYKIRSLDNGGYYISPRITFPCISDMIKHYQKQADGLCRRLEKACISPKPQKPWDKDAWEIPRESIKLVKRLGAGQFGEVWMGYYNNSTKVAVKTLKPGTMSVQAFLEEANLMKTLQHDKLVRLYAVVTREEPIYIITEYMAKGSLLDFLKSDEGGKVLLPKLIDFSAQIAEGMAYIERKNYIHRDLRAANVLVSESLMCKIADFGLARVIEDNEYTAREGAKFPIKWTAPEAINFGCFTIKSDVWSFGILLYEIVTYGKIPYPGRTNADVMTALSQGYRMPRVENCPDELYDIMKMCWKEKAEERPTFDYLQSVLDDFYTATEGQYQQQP
FynT enzyme, sequence (P06241 other isoform, or with tags, fused parts or gaps): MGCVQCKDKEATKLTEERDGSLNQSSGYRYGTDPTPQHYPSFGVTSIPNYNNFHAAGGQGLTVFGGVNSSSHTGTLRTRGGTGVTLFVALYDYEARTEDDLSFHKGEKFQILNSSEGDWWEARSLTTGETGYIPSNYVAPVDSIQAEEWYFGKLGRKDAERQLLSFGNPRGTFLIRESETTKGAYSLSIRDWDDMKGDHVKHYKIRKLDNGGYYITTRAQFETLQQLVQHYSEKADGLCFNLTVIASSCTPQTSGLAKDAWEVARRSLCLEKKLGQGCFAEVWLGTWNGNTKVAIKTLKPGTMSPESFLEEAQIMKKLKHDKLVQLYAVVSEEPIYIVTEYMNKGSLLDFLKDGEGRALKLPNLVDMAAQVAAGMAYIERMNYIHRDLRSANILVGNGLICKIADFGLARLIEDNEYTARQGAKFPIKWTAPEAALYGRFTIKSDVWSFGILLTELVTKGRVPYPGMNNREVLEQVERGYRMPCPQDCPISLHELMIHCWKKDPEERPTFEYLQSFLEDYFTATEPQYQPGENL
Lck enzyme, sequence (P06239 whole entry): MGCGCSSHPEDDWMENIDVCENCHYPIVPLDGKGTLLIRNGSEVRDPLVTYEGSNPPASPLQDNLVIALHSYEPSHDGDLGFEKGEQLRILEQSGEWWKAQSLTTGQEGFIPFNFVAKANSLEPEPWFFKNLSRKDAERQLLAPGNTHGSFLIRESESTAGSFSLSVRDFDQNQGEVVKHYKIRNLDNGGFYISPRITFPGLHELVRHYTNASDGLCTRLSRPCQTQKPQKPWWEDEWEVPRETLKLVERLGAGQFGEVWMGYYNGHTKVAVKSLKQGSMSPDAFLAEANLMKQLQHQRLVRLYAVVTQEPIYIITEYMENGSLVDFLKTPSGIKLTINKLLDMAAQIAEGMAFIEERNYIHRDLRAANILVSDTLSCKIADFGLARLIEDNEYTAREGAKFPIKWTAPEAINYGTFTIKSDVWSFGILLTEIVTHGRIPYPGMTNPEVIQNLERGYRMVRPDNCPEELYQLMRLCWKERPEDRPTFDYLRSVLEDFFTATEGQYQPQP
Src enzyme, sequence (P12931 whole entry, looked up): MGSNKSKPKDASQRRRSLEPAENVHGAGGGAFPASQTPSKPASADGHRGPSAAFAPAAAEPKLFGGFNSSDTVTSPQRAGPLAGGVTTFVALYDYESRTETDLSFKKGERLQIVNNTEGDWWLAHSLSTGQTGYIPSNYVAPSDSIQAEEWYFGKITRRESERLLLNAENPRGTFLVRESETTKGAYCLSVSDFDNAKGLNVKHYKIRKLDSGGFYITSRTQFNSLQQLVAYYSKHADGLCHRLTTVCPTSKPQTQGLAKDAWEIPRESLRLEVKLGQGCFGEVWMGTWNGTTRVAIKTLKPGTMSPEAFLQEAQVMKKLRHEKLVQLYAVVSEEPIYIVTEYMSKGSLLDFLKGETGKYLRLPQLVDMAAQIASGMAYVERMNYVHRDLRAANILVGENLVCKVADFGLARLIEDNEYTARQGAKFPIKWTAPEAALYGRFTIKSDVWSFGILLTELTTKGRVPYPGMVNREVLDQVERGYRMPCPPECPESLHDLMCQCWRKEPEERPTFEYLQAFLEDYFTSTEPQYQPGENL

Row | EC50 [1] | EC50 [2, 6] | EC50 [3, 7] | EC50 [4] | EC50 [5] | EC50 [2] | EC50 Btk activity values [2, 8] | EC50 ([2]; read-out: EC50 Btk activity values, IMAP, 60 min pre-incubation, 5 μM ATP, bin bound in μM) | EC50 Btk activity values [2, 9] | EC50 [3] | EC50 Lck activity values ([3]; IMAP, 60 min pre-incubation, 6 μM ATP, bin bound in μM) | SMILES
1 | ≥ 1 µM | < 10 nM | ≥ 1 µM | ≥ 1 µM | ≥ 1 µM |  |  |  |  |  |  | Cc1ccnc(NC(=O)c2ccc(-c3nc([C@@H]4CCCN4C(=O)c4ccnc(Cl)n4)n4ccnc(N)c34)cc2)c1 [Example 129, (S)-4-(8-amino-3-(1-(2-chloropyrimidine-4-carbonyl)pyrrolidin-2-yl)imidazo[1,5-a]pyrazin-1-yl)-N-(4-methylpyridin-2-yl)benzamide]
2 | ≥ 1 µM | < 10 nM | ≥ 1 µM | ≥ 1 µM | ≥ 1 µM |  |  |  |  |  |  | C=CC(=O)N1CCC[C@H]1c1nc(-c2ccc(C(=O)Nc3cc(N4CCCC4)ccn3)cc2)c2c(N)nccn12 [Example 43, (S)-4-(3-(1-acryloylpyrrolidin-2-yl)-8-aminoimidazo[1,5-a]pyrazin-1-yl)-N-(4-(pyrrolidin-1-yl)pyridin-2-yl)benzamide]
3 | ≥ 1 µM |  | ≥ 1 µM | ≥ 1 µM | ≥ 1 µM | 100 to 1000 nM | <1 µM |  |  |  |  | N#CCN1CCC[C@H]1c1nc(-c2ccc(C(=O)Nc3ccccn3)cc2)c2c(N)nccn12 [Example 94, (S)-4-(8-amino-3-(1-(cyanomethyl)pyrrolidin-2-yl)imidazo[1,5-a]pyrazin-1-yl)-N-(pyridin-2-yl)benzamide]
4 | ≥ 1 µM | < 10 nM | ≥ 1 µM | ≥ 1 µM | ≥ 1 µM |  |  |  |  |  |  | CN(C)C/C=C/C(=O)N1CCCC[C@H]1c1nc(-c2ccc(C(=O)Nc3ccccn3)cc2)c2c(N)nccn12 [Example 78, (S,E)-4-(8-amino-3-(1-(4-(dimethylamino)but-2-enoyl)piperidin-2-yl)imidazo[1,5-a]pyrazin-1-yl)-N-(pyridin-2-yl)benzamide]
5 | ≥ 1 µM | < 10 nM | ≥ 1 µM | ≥ 1 µM | ≥ 1 µM |  |  |  |  |  |  | CC#CC(=O)N1CCC[C@H]1c1nc(-c2ccc(C(=O)Nc3cc(CCC)ccn3)cc2)c2c(N)nccn12 [Example 47, (S)-4-(8-amino-3-(1-but-2-ynoylpyrrolidin-2-yl)imidazo[1,5-a]pyrazin-1-yl)-N-(4-propylpyridin-2-yl)benzamide]
6 | ≥ 1 µM | < 10 nM | ≥ 1 µM | ≥ 1 µM | ≥ 1 µM |  |  |  |  |  |  | C=CC(=O)N1CCCC[C@H]1c1nc(-c2ccc(C(=O)Nc3ccccn3)cc2)c2c(N)nccn12 [Example 46, (S)-4-(3-(1-acryloylpiperidin-2-yl)-8-aminoimidazo[1,5-a]pyrazin-1-yl)-N-(pyridin-2-yl)benzamide]
7 | ≥ 1 µM |  | ≥ 1 µM | ≥ 1 µM | ≥ 1 µM |  |  | ≥ 1000 nM |  |  |  | C=C(C)C(=O)N1CCC[C@H]1c1nc(-c2ccc(C(=O)Nc3ccccn3)cc2)c2c(N)nccn12 [Example 91, (S)-4-(8-amino-3-(1-methacryloylpyrrolidin-2-yl)imidazo[1,5-a]pyrazin-1-yl)-N-(pyridin-2-yl)benzamide]
8 | ≥ 1 µM |  | ≥ 1 µM | ≥ 1 µM | ≥ 1 µM | 10 to 100 nM |  |  | <0.1 µM |  |  | C[C@H](NC(=O)c1ccnc(Cl)n1)c1nc(-c2ccc(C(=O)Nc3ccccn3)cc2)c2c(N)nccn12 [Example 105, (S)-N-(1-(8-amino-1-(4-(pyridin-2-ylcarbamoyl)phenyl)imidazo[1,5-a]pyrazin-3-yl)ethyl)-2-chloropyrimidine-4-carboxamide]
9 | ≥ 1 µM |  | ≥ 1 µM | ≥ 1 µM | ≥ 1 µM | 100 to 1000 nM | <1 µM |  |  |  |  | C=C(C(=O)N1CCC[C@H]1c1nc(-c2ccc(C(=O)Nc3ccccn3)cc2)c2c(N)nccn12)C(F)(F)F [Example 92, (S)-4-(8-amino-3-(1-(2-(trifluoromethyl)acryloyl)pyrrolidin-2-yl)imidazo[1,5-a]pyrazin-1-yl)-N-(pyridin-2-yl)benzamide]
10 | ≥ 1 µM | < 10 nM | ≥ 1 µM | ≥ 1 µM | ≥ 1 µM |  |  |  |  |  |  | CCCc1ccnc(NC(=O)c2ccc(-c3nc([C@@H]4CCCCN4C(=O)/C=C/CN(C)C)n4ccnc(N)c34)cc2OC)c1 [Example 27, (S,E)-4-(8-Amino-3-(1-(4-(dimethylamino)but-2-enoyl)piperidin-2-yl)imidazo[1,5-a]pyrazin-1-yl)-2-methoxy-N-(4-propylpyridin-2-yl)benzamide]
11 | ≥ 1 µM | < 10 nM | ≥ 1 µM | ≥ 1 µM | ≥ 1 µM |  |  |  |  |  |  | C=CC(=O)N1CCCC[C@H]1c1nc(-c2ccc(C(=O)Nc3ncccn3)cc2)c2c(N)nccn12 [Example 20, (S)-4-(3-(1-Acryloylpiperidin-2-yl)-8-aminoimidazo[1,5-a]pyrazin-1-yl)-N-(pyrimidin-2-yl)benzamide]
12 | ≥ 1 µM | < 10 nM | ≥ 1 µM | ≥ 1 µM | ≥ 1 µM |  |  |  |  |  |  | CC#CC(=O)N1CCC[C@H]1c1nc(-c2ccc(C(=O)Nc3cc(C(F)(F)F)ccn3)cc2)c2c(N)nccn12 [Example 10, (S)-4-(8-Amino-3-(1-but-2-ynoylpyrrolidin-2-yl)imidazo[1,5-a]pyrazin-1-yl)-N-(4-(trifluoromethyl)pyridin-2-yl)benzamide]
13 | ≥ 1 µM | < 10 nM | ≥ 1 µM | ≥ 1 µM | ≥ 1 µM |  |  |  |  |  |  | C=CC(=O)N1CCCC[C@H]1c1nc(-c2ccc(C(=O)Nc3nccc(C)n3)cc2)c2c(N)nccn12 [Example 21, (S)-4-(3-(1-Acryloylpiperidin-2-yl)-8-aminoimidazo[1,5-a]pyrazin-1-yl)-N-(4-methylpyrimidin-2-yl)benzamide]
14 | ≥ 1 µM |  | ≥ 1 µM | ≥ 1 µM | ≥ 1 µM | 100 to 1000 nM | <1 µM |  |  |  |  | Nc1nccn2c([C@@H]3CCCCN3C(=O)c3ccnc(Cl)n3)nc(-c3ccc(C(=O)Nc4ncccn4)cc3)c12 [Example 90, (S)-4-(8-amino-3-(1-(2-chloropyrimidine-4-carbonyl)piperidin-2-yl)imidazo[1,5-a]pyrazin-1-yl)-N-(pyrimidin-2-yl)benzamide]
15 | ≥ 1 µM | < 10 nM | ≥ 1 µM | ≥ 1 µM | ≥ 1 µM |  |  |  |  |  |  | Nc1nccn2c([C@@H]3CCCN3C(=O)C#CC3CC3)nc(-c3ccc(C(=O)Nc4ccccn4)cc3)c12 [Example 35, (S)-4-(8-Amino-3-(1-(3-cyclopropylpropioloyl)pyrrolidin-2-yl)imidazo[1,5-a]pyrazin-1-yl)-N-(pyridin-2-yl)benzamide]
16 | ≥ 1 µM |  | ≥ 1 µM | ≥ 1 µM | ≥ 1 µM | 10 to 100 nM |  |  | <0.1 µM |  |  | COCC#CC(=O)N1CCC[C@H]1c1nc(-c2ccc(C(=O)Nc3ccccn3)cc2)c2c(N)nccn12 [Example 41, (S)-4-(8-Amino-3-(1-(4-methoxybut-2-ynoyl)pyrrolidin-2-yl)imidazo[1,5-a]pyrazin-1-yl)-N-(pyridin-2-yl)benzamide]
17 | ≥ 1 µM | < 10 nM | ≥ 1 µM | ≥ 1 µM | ≥ 1 µM |  |  |  |  |  |  | CC#CC(=O)N1CCC[C@H]1c1nc(-c2ccc(C(=O)Nc3cc(OC)ccn3)cc2)c2c(N)nccn12 [Example 123, (S)-4-(8-amino-3-(1-but-2-ynoylpyrrolidin-2-yl)imidazo[1,5-a]pyrazin-1-yl)-N-(4-methoxypyridin-2-yl)benzamide]
18 | ≥ 1 µM | < 10 nM |  | ≥ 1 µM | ≥ 1 µM |  |  |  |  | 0.1 to 1 µM | <1 µM | CC#CC(=O)N1CCC[C@H]1c1nc(-c2ccc(C(=O)Nc3cc(-c4ccccc4)ccn3)cc2)c2c(N)nccn12 [Example 132, (S)-4-(8-amino-3-(1-but-2-ynoylpyrrolidin-2-yl)imidazo[1,5-a]pyrazin-1-yl)-N-(4-phenylpyridin-2-yl)benzamide]
19 | ≥ 1 µM |  | ≥ 1 µM | ≥ 1 µM | ≥ 1 µM | 10 to 100 nM |  |  | <0.1 µM |  |  | COc1cc(-c2nc([C@@H]3CCCN3C(=O)c3ccnc(Cl)n3)n3ccnc(N)c23)ccc1C(=O)Nc1ccccn1 [Example 83, (S)-4-(8-amino-3-(1-(2-chloropyrimidine-4-carbonyl)pyrrolidin-2-yl)imidazo[1,5-a]pyrazin-1-yl)-2-methoxy-N-(pyridin-2-yl)benzamide]
